In patent US20240117431A1, “STEM-CELL BASED BIOMARKER DISCOVERY” (THE REGENTS OF THE UNIVERSITY OF CALIFORNIA, priority 2020, published 2024):

Target: T1, Methionine-tRNA Synthetase L272G (MethL272G) iPSCs (Homo sapiens, UniProt P56192, L272G)
T1 construct: Using CRISPR gene editing, this locus was successfully modified in a human iPSC line; endogenous in cells; host or cells: human iPSC line ADRC 76, CRISPR-edited
T1 sequence (P56192 1-900 L272G): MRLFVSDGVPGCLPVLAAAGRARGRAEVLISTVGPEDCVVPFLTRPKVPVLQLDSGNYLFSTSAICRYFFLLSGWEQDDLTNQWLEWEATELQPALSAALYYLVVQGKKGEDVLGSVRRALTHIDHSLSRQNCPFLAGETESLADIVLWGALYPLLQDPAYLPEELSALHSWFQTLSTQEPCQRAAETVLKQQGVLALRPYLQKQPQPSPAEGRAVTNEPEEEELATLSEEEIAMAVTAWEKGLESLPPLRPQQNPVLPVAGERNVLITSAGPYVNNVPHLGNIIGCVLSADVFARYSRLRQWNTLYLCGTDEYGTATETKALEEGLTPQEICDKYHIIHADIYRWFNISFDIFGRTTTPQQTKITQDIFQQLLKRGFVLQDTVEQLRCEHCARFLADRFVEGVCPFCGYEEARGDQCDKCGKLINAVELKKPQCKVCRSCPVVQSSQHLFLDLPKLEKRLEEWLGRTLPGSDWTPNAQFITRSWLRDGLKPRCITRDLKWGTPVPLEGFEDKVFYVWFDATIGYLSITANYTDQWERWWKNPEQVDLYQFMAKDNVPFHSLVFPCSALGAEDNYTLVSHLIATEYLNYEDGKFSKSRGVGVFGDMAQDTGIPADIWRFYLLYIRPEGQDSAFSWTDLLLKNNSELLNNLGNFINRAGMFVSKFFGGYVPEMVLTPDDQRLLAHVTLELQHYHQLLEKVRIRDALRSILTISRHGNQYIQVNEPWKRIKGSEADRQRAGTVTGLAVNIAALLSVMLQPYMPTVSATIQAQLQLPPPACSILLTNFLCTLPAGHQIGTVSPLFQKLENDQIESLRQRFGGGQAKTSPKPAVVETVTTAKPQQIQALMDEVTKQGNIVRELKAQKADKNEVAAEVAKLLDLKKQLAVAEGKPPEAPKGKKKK
Test: ANL incorporation into nascent protein of iPSCs (BONCAT western blot, TAMRA confocal microscopy)
Assay type: cell-based
Settings: 1.5 mM ANL, 14 hrs
Description: Validation by Western Blot: Wild-type (WT) and MethL272G iPSCs were cultured in 6-well plate with and without 1.5 mM ANL (Tocris 6585) for 14 hrs in DMEM/F12 Silac media without Methionine (AthenaES 0433) supplemented with TeSR™-E8™ 25× Supplement. (Note: Methionine-absent media is described as Metia below.) Cells were dissociated and collected using TrypLE Express (Gibco 12605028) for 3 min at 37° C., isolated, and lysed in Ripa buffer with Halt Protease Inhibitor Cocktail (ThermoFisher Scientific 78429) and Halt Phosphatase Inhibitor Cocktail (ThermoFisher Scientific 78426). 200 μg of protein was labeled for analysis using Click-iT Protein Analysis TAMRA alkyne Detection Kit (Invitrogen C33370) that tags the azide of ANL incorporated protein with a TAMRA-alkyne tag via the following reaction:
The resulting protein pellets were boiled in 120 μl of Loading Buffer and boiled for 15 minutes at 70° C., which were then loaded into a 4-15% Criterion TGX 12-well Gel (Bio-Rad 5671083) for electrophoresis, then transferred to Trans-Blot® Turbo™ Midi Nitrocellulose Membrane (Bio-Rad 1704159) for analysis. Protein was probed with TAMRA Monoclonal Antibody (5G5) (Invitrogen MA1-041) followed by anti-mouse secondary for imaging. […]

Structure (SMILES): [N-]=[N+]=NCCCC[C@H](N)C(=O)O [ANL, L-azidonorleucine]
- labeling of cellular protein (TAMRA confocal microscopy) (control ADRC76 versus MethL272G iPSCs, FIG. 2A): labeling of cellular protein only in mutated MethL272G iPSCs
- BONCAT labeling of ANL-incorporated protein (western blot) (methionine-absent media, FIG. 1B): successful BONCAT labeling
